Inconclusive results are not listed. Calls of active or inactive are those of the source. No rule for the calls is given here.

System in one experiment: not listed separately
Briefly: NIH/3T3 fibroblast cytotoxicity, dose response, cytotoxicity control, cell-based, plate reader, dry powder, set 2 (AID 652280). Particulars: NIH/3T3 mouse fibroblast toxicity, plate reader; at 16 µM (top of the series).
For `C[C@H]1CN([C@@H](C)CO)C(=O)c2cccc(NC(=O)c3ccncc3)c2O[C@@H]1CN(C)Cc1ccccc1Cl`, the activity change, negative = toxicity was -7.97% (inactive).
The same measure, in the same setting: next, `COc1ccc(C#Cc2cccc(-c3nc(C(=O)NCc4ccc5c(c4)OCO5)cc4c3[C@@H](CCO)N(S(=O)C(C)(C)C)C4)c2)cc1OC` (stereo partly drawn): 9.35% (inactive); `CN(C)CC#Cc1cccc(-c2nc(C(=O)O)cc3c2[C@H](CCO)N(S(=O)C(C)(C)C)C3)c1` (stereo partly drawn): -1.94% (inactive).
Same read-out and setting: the value for `CC(C)N1C[C@@H](C)[C@H](CN(C)C(=O)OC(C)(C)C)Oc2c(C(=O)Nc3ccncc3)cccc2C1=O` was -10.9% (inactive); that for `CC(C)N1C[C@@H](CN(C)CCc2ccc(Cl)cc2)Oc2c(NC(=O)c3ccncc3)cccc2C1=O` was -32% (inactive); that for `CN(C)CC(=O)N1CCCCN2[C@@H](CO)[C@H](c3ccc(-c4cccnc4)cc3)[C@@H]2C1` was 0.846% (inactive).
As to `CN(C)C(=O)c1cccc(-c2ccc([C@@H]3[C@H]4CN(C(=O)C5CCC5)CCCCN4[C@H]3CO)cc2)c1`, the activity change, negative = toxicity was 5.4% (inactive).
Turning to `CN(C)C(=O)c1cccc(-c2ccc([C@H]3[C@H](CO)N4CCCCN(CC5CCOCC5)C[C@@H]34)cc2)c1`, the activity change, negative = toxicity is 20% (inactive).
Still for that read-out and setting: the value for `CC(C)N1C[C@H](CN(C)Cc2ccc(Cl)cc2)Oc2c(NC(=O)c3ccncc3)cccc2C1=O` was -35.4% (inactive); that for `COc1ccc(CCN(C)C(=O)C2CCCN(Cc3ccc(OC)c(OC)c3)C2)cc1OC` (stereo not drawn) was 6.14% (inactive).
Regarding `CC(C)N1C[C@@H](CN(C)Cc2ccc(Cl)cc2)Oc2c(NC(=O)c3ccncc3)cccc2C1=O`, the activity change, negative = toxicity is -18% (inactive).
Still for that read-out and setting: next, `CC(C)N1C[C@@H](CNCc2ccc(Oc3ccccc3)cc2)Oc2c(NC(=O)c3ccncc3)cccc2C1=O`: -29.5% (inactive).
Same read-out and setting: next, `CC(C)N1C[C@@H](CN(C)Cc2ccc(Cl)cc2)Oc2c(NC(=O)c3ccncn3)cccc2C1=O`: -18.8% (inactive); `O=C(Cc1ccccn1)N1CCCCN2[C@@H](CO)[C@H](c3ccc(Br)cc3)[C@@H]2C1`: 9.05% (inactive).
Take `CN(C)C(=O)c1ccc(-c2ccc([C@H]3[C@H](CO)N4CCCCN(CC5CC5)C[C@@H]34)cc2)cc1`: the activity change, negative = toxicity is 24.4% (inactive).
On the same count and under the same terms, next, `CN(C)CC#Cc1cccc(-c2nc(C(=O)NCc3ccc(Oc4ccccc4)cc3)cc3c2[C@@H](CCO)N(S(=O)C(C)(C)C)C3)c1` (stereo partly drawn): 31.3% (inactive); `C[C@H]1CN([C@@H](C)CO)C(=O)c2cccc(NC(=O)c3ccncc3)c2O[C@@H]1CN(C)Cc1ccc(Oc2ccccc2)cc1`: 12.9% (inactive).
The same measure, in the same setting: next, `O=C(CN1CCOCC1)N1CCCCN2[C@@H](CO)[C@H](c3ccc(Br)cc3)[C@@H]2C1`: 2.42% (inactive); `Cc1cccc(-c2ccc([C@H]3[C@H](CO)N4CCCCN(C(=O)c5ccncc5)C[C@@H]34)cc2)c1`: -19.7% (inactive); `C[C@H]1CN([C@@H](C)CO)C(=O)c2cccc(NC(=O)c3ccncc3)c2O[C@@H]1CN(C)Cc1ccc(F)c(Cl)c1`: -32.5% (inactive).
On to `CC(C)(C)S(=O)N1Cc2cc(C(=O)NCc3ccc4c(c3)OCO4)nc(-c3cccc(C#CCC4CCCC4)c3)c2[C@@H]1CCO` (stereo partly drawn), for which the activity change, negative = toxicity was 83.4% (inactive).
As for `CC(C)N1CC[C@H](CN(C)Cc2ccc(Oc3ccccc3)cc2)Oc2c(NC(=O)c3ccncc3)cccc2C1=O`, the activity change, negative = toxicity is -22.1% (inactive).
The same measure, in the same setting: next, `CC(C)N1C[C@H](C)[C@@H](CN(C)C(=O)OC(C)(C)C)Oc2c(cccc2-c2nn[nH]n2)C1=O`: 34.3% (inactive); `CC(C)N1C[C@H](C)[C@@H](CN(C)Cc2ccc(Cl)cc2)Oc2c(NC(=O)c3ccncc3)cccc2C1=O`: -13.4% (inactive).
On the same count and under the same terms, next, `CC(C)(C)S(=O)N1Cc2cc(C(=O)NCc3ccc4c(c3)OCO4)nc(-c3cccc(-c4cccc(F)c4)c3)c2[C@@H]1CCO` (stereo partly drawn): -21.2% (inactive); `CN(C)C(=O)c1cccc(-c2ccc([C@@H]3[C@@H](CO)N4CCCCN(C(=O)C5CCC5)C[C@H]34)cc2)c1`: 5.21% (inactive).
For `CCOC(=O)c1cc2c(c(-c3cccc(C#CCN(C)C)c3)n1)[C@H](CCO)N(S(=O)C(C)(C)C)C2` (stereo partly drawn), the activity change, negative = toxicity was -9.39% (inactive).
The same measure, in the same setting: next, `CC(C)N1C[C@@H](C)[C@H](CN(C)C(=O)OC(C)(C)C)Oc2c(C(N)=O)cccc2C1=O`: 12.8% (inactive); `CN(C)C(=O)c1cccc(-c2ccc([C@H]3[C@H](CO)N4CCCCN(Cc5cccnc5)C[C@@H]34)cc2)c1`: -3% (inactive).
Same read-out and setting: the value for `C[C@H]1CN([C@@H](C)CO)C(=O)c2cccc(NC(=O)c3ccncc3)c2O[C@@H]1CN(C)Cc1c(Cl)cccc1Cl` was 16% (inactive); that for `CN(C)CC#Cc1cccc(-c2nc(C(=O)N[C@@H]3CCN(Cc4ccccc4)C3)cc3c2[C@@H](CCO)N(S(=O)C(C)(C)C)C3)c1` (stereo partly drawn) was 0.065% (inactive).
As for `CC(C)N1C(=O)c2cccc(NC(=O)c3ccncc3)c2O[C@H](CN(C)Cc2ccc(Cl)cc2)[C@H]1C`, the activity change, negative = toxicity is -1.14% (inactive).
Still for that read-out and setting: the value for `O=C(Cc1ccccn1)N1CCCCN2[C@@H](CO)[C@H](c3ccc(-c4ccc(F)cc4)cc3)[C@@H]2C1` was -8.79% (inactive).
For `CC(C)N1CC2(CN(C(=O)OC(C)(C)C)C2)Oc2c(NC(=O)c3ccncc3)cccc2C1=O`, the activity change, negative = toxicity was -9.89% (inactive).
Turning to `CC(C)N1CC2(CN(Cc3ccc(F)c(F)c3)C2)Oc2c(NC(=O)c3ccncc3)cccc2C1=O`, the activity change, negative = toxicity is -3.93% (inactive).
In the case of `CC(C)N1CC2(CN(CC3CCCCC3)C2)Oc2c(NC(=O)c3ccncc3)cccc2C1=O`, the activity change, negative = toxicity is 9.84% (inactive).
On to `CC(C)N1CC2(CN(Cc3ccc(Cl)cc3)C2)Oc2c(NC(=O)c3ccncc3)cccc2C1=O`, for which the activity change, negative = toxicity was -2.46% (inactive).

The next experiment deals with NIH/3T3 mouse fibroblast toxicity, plate reader. The experiment is described as above.
Conditions: not given
The AC50 is the concentration giving half of the maximal activity seen. In the case of `C[C@@H]1CN([C@@H](C)CO)C(=O)c2cccc(NC(=O)c3ccncc3)c2O[C@H]1CN(C)Cc1ccc(Oc2ccccc2)cc1`, the AC50 is 3.31 µM.

(Values after PubChem BioAssay AID652280 (Broad Institute, 2013).)
